Experimental data taken from patent publication US8334316B2, “Substituted organosulfur compounds and methods of using thereof” (ACEA Biosciences, Inc., priority 2004, dated 2012).

Tests used:
Type in all cases: cell-based
[1] = system: HT1080 (human fibrosarcoma cell line); experiment: RT-CES system cell proliferation/cytotoxicity IC50, HT1080; conditions: HT-1080, time point of maximum inhibition
Text: (§1) The RT-CES system comprises three components, an electronic sensor analyzer, a device station and 16× or 96× microtiter plate devices. Microelectrode sensor array was fabricated on glass slides with lithographical microfabrication methods and the electrode-containing slides are assembled to plastic trays to form electrode-containing wells. Each 16× (or 96×) microtiter plate device used in RT-CES system comprises up to 16 (or 96) such electrode-containing wells. The device station receives the 16× or 96× microtiter plate devices and is capable of electronically switching any one of the wells to the sensor analyzer for impedance measurement. In operation, the devices with cells cultured in the wells are placed into a device station that is located inside an incubator. Electrical cables connect the device station to the sensor analyzer. Under the RT-CES software control, the sensor analyzer can automatically select wells to be measured and continuously conduct impedance measurements. The impedance data from the analyzer is transferred to a computer, analyzed and processed by the integrated software.
(§2) To quantify cell status based on the measured cell-electrode impedance, a parameter termed Cell Index is derived, according to
(§3) [formula] where Rb(f) and Rcell(f) are the frequency dependent electrode resistances (a component of impedance) without cells or with cell present, respectively. N is the number of the frequency points at which the impedance is measured. Thus, Cell Index is a quantitative measure of the status of the cells in an electrode-containing well. Under the same physiological conditions, more cells attached on to the electrodes leads to larger Rcell(f) value, leading to a larger value for Cell Index. Furthermore, for the same number of cells present in the well, a change in the cell status such as morphology will lead to a change in the Cell Index. For example, an increase in cell adhesion or cell spreading leads to larger cell-electrode contact area which will lead to an increase in Rcell(f) and thus a larger value for Cell Index. The Cell Index may also be calculated using a formula different from the one described here. Other methods for calculating the Cell Index based on impedance measurement can be found in PCT application number PCT/US04/37696, fined on Nov. 12, 2004, PCT application number PCT/US05/04481, filed on Feb. 9, 2005, U.S. patent application Ser. No. 10/987,732, filed on Nov. 12, 2004, and U.S. patent application Ser. No. 11/055,639, filed on Feb. 9, 2005.
HT1080 cells (human fibrosarcoma cells) were seeded into wells of 16× or 96× microtiter plate devices (electronic plates, i.e., the plates comprise microelectrode sensor arrays in the wells of the plate) with an initial seeding density of 4,000 cells per well and were pre-incubated in incubator under standard cell culture conditions for about 18.6 hrs. Dibenzyl trisulfide solution in DMSO was added into wells following the incubation period. The cell status was monitored prior to and after the compound addition using RT-CES system. The cell indexes of different wells were between 0.72 and 1.45 just before the compound addition. […] The cell index was normalized against the cell index values at a time point just after compound addition (about 20 hrs after cell seeding).
(§4) For the assay performed on the RT-CES system, the cells were seeded into the 16× or 96× microtiter plate devices (electronic plates, i.e., the plates comprise microelectrode sensor arrays in the wells of the plate) at the seeding density ranging from 5000 cells/well to 15,000 cells/well. The cells were incubated at 5% CO2 and 37° C. for overnight till the cell indices reached the growth phase where the cell index was between 0.8 and 1.2. Serially diluted compounds were then added to the cells followed by dynamic monitoring of the effect of the compounds on the cell proliferation and cytotoxicity. […]

[2] = system: OVCAR4 (human ovarian cancer cell line); experiment: RT-CES system cell proliferation/cytotoxicity IC50, OVCAR4; conditions: OVCAR-4, time point of maximum inhibition
Text: as §1, §2, §3
OVCAR4 cells (human ovarian cancer cells) were seeded into wells of 16× or 96× microtiter plate devices (electronic plates, i.e., the plates comprise microelectrode sensor arrays in the wells of the plate) with an initial seeding density of 10,000 cells per well and were pre-incubated in incubator under standard cell culture conditions for about 27 hrs. Dibenzyl trisulfide solution in DMSO was added into wells following the incubation period. The cell status was monitored prior to and after the compound addition using RT-CES system. The cell indexes of different wells were between 1.4 and 1.7 just before the compound addition. […] The cell index was normalized against the cell index values at a time point just after compound addition (about 28 hrs after cell seeding).
as §4

[3] = system: MDA-MB231 (M231, human breast cancer cell line); experiment: MTT assay IC50 (48 h), MDA-MB231; conditions: MDA-MB-231, M231, 48 hours
Experimental: In another assay format, a test compound is assayed for its cytotoxicity and/or cytostatic effect on certain cancer cell types, using endpoint assay methods. Cells in the NCI cancer cell panel may be used. Cells after a pre-incubation for certain length of time (for example, 8 hrs or 24 hrs) are incubated with a test compound at serially-diluted concentrations (for example, five 10-fold dilutions) for 24 hrs and/or 48 hrs, and/or other specific length of time. The dose dependent cytotoxicity and/or cytostatic effects of test compounds can then be tested and evaluated using the 3-(4,5-dimethylthiazol-2-yl)-2,5-diphenyltetrazolium bromide (MTT) assay method, as described by, for example, Boyd (In Principle of Practice of Oncology, Devita, J. T., Hellman, S. and Rosenberg S. A. (Eds), 1989, Vol, 3, PPO Update, No. 10).
The anticancer potency of DBTS and its derivatives were tested in 8 different types of human cancer cell lines using the RT-CES system and MTT assay. The 8 cancer cell lines were HT1080 (the human fibrosarcoma cell line), H460 (human non small cell lung cancer cell line), OVCAR4 (the human ovarian cancer cell line), MCF7 (human breast cancer cell line) MDA-MB231 (M231, the human breast cancer cell line) A2780 (the human […] cancer cell line) Jurkat (the human T cell leukemia cell line). The test DBTS derivatives include ACEA100107, ACEA100108, ACEA100109, ACEA100111, ACEA100115, ACEA100116, ACEA100117, ACEA100118, ACEA100119, and ACEA100120.
For the MTT assay, the cells were seeded into the regular 96× well plates at the cell seeding density ranging from 5000 cells/well to 15,000 cells/well. The cells were incubated at 5% CO2 and 37° C. for overnight. The derivatives were serially diluted and added to the cells. The treatment was terminated after 48 hours of incubation by adding MTT staining reagent. After 4 hours, the staining was stopped by the stop buffer and then the calorimetric measurement was carried out on a microtiter plate reader at dual wave length, 650 nm and 550 nm.

Row | SMILES | IC50 [3] | IC50 [1] | IC50 [2]
1 | Clc1ccccc1CSSSCc1ccccc1Cl [ACEA100115, Di(o-chlorobenzyl)trisulfide] | 3100 nM | 2.2 µM | 0.5 µM
2 | c1ccc(CSSSCc2ccccc2)cc1 [DBTS, Dibenzyl trisulfide] | 2400 nM | 2.2 µM | 1.75 µM
3 | Fc1ccc(CSSSCc2ccc(F)cc2)cc1 [ACEA100108, Di(p-fluorobenzyl)trisulfide] | 4400 nM | 1.3 µM | 2 µM

The next lines start with results.

Row | IC50 [3] | SMILES | IC50 [1] | IC50 [2]
4 | 14900 nM | FC(F)(F)c1cccc(CSSSCc2cccc(C(F)(F)F)c2)c1 [ACEA100117, Di(m-trifluoromethylbenzyl)trisulfide] | 27.5 µM | 33.5 µM
5 | 1200 nM | Clc1ccc(CSSSCc2ccc(Cl)cc2)cc1 [ACEA100118, Di(p-chlorobenzyl)trisulfide] | 1.2 µM | 2.25 µM
6 | 650 nM | Cc1cccc(CSSSCc2cccc(C)c2)c1 [ACEA100116, di(m-methylbenzyl)trisulfide] | 1.9 µM | 0.6 µM
